Assay results as given in article PMC5983484, “A receptor tyrosine kinase ROR1 inhibitor (KAN0439834) induced significant apoptosis of pancreatic cells which was enhanced by erlotinib and ibrutinib” (PLoS ONE, 2018).

Target: ROR1 (Homo sapiens, UniProt Q01973)
Assay: Western blot of pROR1 in PaCa-2 cells ([…] h), confirmed by human phospho-RTK array
Type: cell-based

Sequence of ROR1 (Q01973 30-937): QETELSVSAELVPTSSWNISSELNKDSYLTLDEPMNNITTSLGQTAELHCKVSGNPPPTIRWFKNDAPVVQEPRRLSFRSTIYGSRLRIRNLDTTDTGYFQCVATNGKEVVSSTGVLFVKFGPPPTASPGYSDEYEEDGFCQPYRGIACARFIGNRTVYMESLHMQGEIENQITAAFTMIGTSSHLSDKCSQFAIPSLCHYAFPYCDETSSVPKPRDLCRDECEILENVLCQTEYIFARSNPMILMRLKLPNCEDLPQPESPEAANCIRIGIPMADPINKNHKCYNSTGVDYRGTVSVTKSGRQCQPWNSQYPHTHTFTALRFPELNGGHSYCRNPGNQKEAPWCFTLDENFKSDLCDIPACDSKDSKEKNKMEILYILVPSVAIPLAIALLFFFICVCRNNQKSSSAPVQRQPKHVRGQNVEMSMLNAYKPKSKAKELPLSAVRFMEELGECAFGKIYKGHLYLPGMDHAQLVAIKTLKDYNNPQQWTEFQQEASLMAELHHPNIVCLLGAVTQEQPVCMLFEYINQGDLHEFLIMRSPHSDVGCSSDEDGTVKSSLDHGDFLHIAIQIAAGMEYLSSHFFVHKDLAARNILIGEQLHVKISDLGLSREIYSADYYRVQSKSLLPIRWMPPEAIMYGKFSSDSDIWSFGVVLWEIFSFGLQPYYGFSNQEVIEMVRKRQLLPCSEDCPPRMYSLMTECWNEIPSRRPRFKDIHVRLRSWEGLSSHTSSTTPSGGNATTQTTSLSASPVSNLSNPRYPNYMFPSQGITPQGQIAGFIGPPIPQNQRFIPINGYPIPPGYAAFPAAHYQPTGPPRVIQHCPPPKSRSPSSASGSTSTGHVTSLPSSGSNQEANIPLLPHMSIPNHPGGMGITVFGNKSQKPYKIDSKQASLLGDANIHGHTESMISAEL

## KAN0439834
  IC50: < 100 nM
